Usually Kd stands for the constant that tells how readily two partners part at equilibrium. A higher Kd goes with a looser complex.

We go through 1 compound from US20260070924A1, “INDAZOLE MACROCYCLES AND THEIR USE” (BLOSSOMHILL THERAPEUTICS, INC., priority 2022, published 2026).

One test addresses FLT3 (D835V) (Homo sapiens (Human), UniProt P36888, D835V). The test can be described thus: KINOMEscan binding assay (Eurofins DiscoveRx). As to the method: (§1) For most kinases, kinase-tagged T7 phage strains were prepared in an E. coli host derived from the BL21 strain. E. coli were grown to log-phase and infected with T7 phage and incubated with shaking at 32° C. until lysis. The lysates were centrifuged and filtered to remove cell debris. The remaining kinases were produced in HEK-293 cells and subsequently tagged with DNA for qPCR detection. Streptavidin-coated magnetic beads were treated with biotinylated small molecule ligands for 30 minutes at room temperature to generate affinity resins for kinase assays. The liganded beads were blocked with excess biotin and washed with blocking buffer (SeaBlock (Pierce), 1% BSA, 0.05% Tween 20, 1 mM DTT) to remove unbound ligand and to reduce non-specific binding. […] Test compounds were prepared as 111× stocks in 100% DMSO. Kds were determined using an 11-point 3-fold compound dilution series with three DMSO control points. […] The compounds were then diluted directly into the assays such that the final concentration of DMSO was 0.9%. All reactions performed in polypropylene 384-well plate. Each was a final volume of 0.02 ml. […] The kinase concentration in the eluates was measured by qPCR. Binding constants (Kds) were calculated with a standard dose-response curve using a non-linear least square fit with the Levenberg-Marquardt algorithm.

A further test concerns the target FLT3 (D835Y) (Homo sapiens (Human), UniProt P36888, D835Y). The test can be described thus: KINOMEscan binding assay (Eurofins DiscoveRx). As to the method:
as §1

Another test addresses FLT3 (Homo sapiens (Human), UniProt P36888). Briefly: KINOMEscan binding assay (Eurofins DiscoveRx). On the procedure:
as §1

The next test concerns the target FLT3 (ITD). The test can be described thus: KINOMEscan binding assay (Eurofins DiscoveRx). As to the method: as §1
The target in a further test is FLT3 (K663Q) (Homo sapiens (Human), UniProt P36888, K663Q). The test can be described thus: KINOMEscan binding assay (Eurofins DiscoveRx). On the procedure: as §1
For another test, the target named is FLT3 (N841I) (Homo sapiens (Human), UniProt P36888, N841I). Briefly: KINOMEscan binding assay (Eurofins DiscoveRx). As to the method: as §1
The target of a further test is FLT3 (R834Q) (Homo sapiens (Human), UniProt P36888, R834Q). The test can be described thus: KINOMEscan binding assay (Eurofins DiscoveRx). On the procedure: as §1
The test system of the next test is MV-4-11 cells. Briefly: MV-4-11 cell proliferation assay (CellTiter-Glo 2.0). Type of test: cell-based. As to conditions: MV-4-11, 384-well, 11-dose dilution series; read-out: IC50, inhibition of MV-4-11 cell proliferation. As to the method: MV-4-11 cell line was purchased from ATCC and maintained in RPMI medium supplemented with 10% fetal bovine serum and 100 U/mL of penicillin/streptomycin. One thousand MV-4-11 cells/50 μl per well were seeded in white 384-well plate, followed by treatment with indicated compounds in a 11-dose dilution series. Cell proliferation was measured using CellTiter-Glo 2.0 luciferase-based ATP detection assay (Promega, Madison, WI) following the manufacturer's protocol. Plates were then read on a TECAN Sparks multimode microplate reader. Data was analyzed using GraphPad Prism 9 (GraphPad Software, San Diego, CA) to obtain IC50 values.
A general note: ATP-based viability assays read luminescence as a measure of living cells.

In test [1] the test system is Phospho-S6 Ribosomal Protein (S235/236). The test can be described thus: Inhibition of kinase phosphorylation by Western Blot in MV-4-11. The class given is cell-based. As to conditions: MV-4-11 cells, 4 hour-incubation; read-out: pS6 MV-4-11 IC50. On the procedure:
(§2) Inhibition of kinase phosphorylation assay was performed by Western Blot using MV-4-11 and MOLM13 cell lines. Cells were plated in 24 well plates at 1 million cells per well and then treated with compounds at different concentrations, starting at 100 nM, 1:4 titration with DMSO as control. After 4 hour-incubation, cells were washed once with ice-cold PBS, and lysed in RIPA lysis buffer with protease and phosphatase inhibitors. The cell lysates were then sonicated and spun down, and 40 μg of proteins were separated by sodium dodecyl sulfate electrophoresis on a 4 to 12% Bis-Tris polyacrylamide gel and transferred onto nitrocellulose membranes using Bio-Rad Trans-Blot Turbo Transfer System (Bio-Rad). Blocking was performed using 3% BSA or 5% Non-fat dry milk (Fisher Scientific) in TBST (Tris-buffered saline containing 0.05% of Tween 20) (Bio-Rad Laboratories, Inc.). The membranes were incubated overnight with anti-phospho-FLT3 (Y589/Y591) (CST #60413), anti-phospho-STAT5 (Y694) (CST #4322), anti-Phospho-p44/42 MAPK (Erk1/2) (T202/Y204) (CST #9101), anti-Phospho-S6 Ribosomal Protein (S235/236) (CST #4858) and anti-β-Actin (CST #8457) each diluted 1000 times in 3% BSA in TBST. Membranes were washed with TBST and then incubated at room temperature for 1 hour with HRP-labeled anti-rabbit IgG polyclonal antibody (CST #7074) diluted 1000 times in 3% BSA. After TBST washing, blots were developed with a chemiluminescence system (SuperSignal West Femto Maximum Sensitivity Substrate, Pierce #34095). Luminescence was detected by LI-COR Odyssey M imaging system and luminescence intensity were quantified using Empiria Studio 2.2 software. Data was analyzed using GraphPad Prism 9 (GraphPad Software, San Diego, CA) to obtain IC50 values.
(In western blotting, separated proteins are transferred to a membrane and probed.)

Test [2] deals with Phospho-p44/42 MAPK (Erk1/2) (T202/Y204). The test is described as above. Type of test: cell-based. As to conditions: MV-4-11 cells, 4 hour-incubation; read-out: pERK MV-4-11 IC50. On the procedure:
as §2

The test system of a further test is phospho-STAT5 (Y694). The test is described as above. The class given is cell-based. The conditions noted are these: MV-4-11 cells, 4 hour-incubation; read-out: pSTAT5 MV-4-11 IC50. On the procedure: as §2
The subject of test [3] is BCLAF1 exon10-12/exon 10-11. The test can be described thus: Alternative splicing ratio by qPCR in MOLM-13. The class given is cell-based. As to conditions: DMSO = 1.00. On the procedure:
(§3) Alternative splicing ratio of RNA transcripts was measured by qPCR in MV-4-11 and MOLM-13 cell lines. Cells were plated in 24 well plates at 1 million cells per well and then treated with compounds at different concentrations, with DMSO only as control. After 8-hour-incubation, cells were harvested and washed once with ice-cold PBS, and lysed in RNA lysis buffer (Invitrogen). Total RNA was extracted using the RNA Purification Kit (Invitrogen). 2 μg of RNA was used for cDNA synthesis using cDNA synthesis kit (ThermoFisher) and 20 ng of cDNA was used for qPCR using PROFLEX 96-Well PCR System (ThermoFisher).
Primers with the following sequences were used for the measurement: • BCLAF1 exon10-12/exon 10-11 (TaqMan, IDT)
Background: In qPCR the cycle at which signal appears reflects the starting amount.

A further test relates to BCLxS/xL. Briefly: Alternative splicing ratio by qPCR in MOLM-13. The class given is cell-based. As to conditions: DMSO = 1.00. On the procedure:
as §3
• BCLxS/xL (SYBR Green, IDT)

For `CCc1nn(C)c2c1/C=C/c1n[nH]c3ccc(cc13)-c1cnn(C)c1OCCN(C)C2=O` [Ex. 6, (17E)-16-ethyl-8,12,14-trimethyl-2,11,12,14-tetrahydro-8H-3,5-ethenotripyrazolo[3,4-f:3′,4′-j:4″,3″-n][1,4]oxazacyclopentadecin-13(10H)-one], the Kd amounted to 0.062 nM at FLT3 (D835V); 4.1 nM on FLT3 (D835Y); 0.18 nM at FLT3; 6.3 nM at FLT3 (ITD); 16 nM at FLT3 (K663Q); 2.2 nM at FLT3 (N841I). The Kd on FLT3 (R834Q) was determined as 0.89 nM. The IC50 in the test with MV-4-11 cells worked out at 0.3 nM; in [1] it was 0.41 nM; in test [2], 2.85 nM; with phospho-STAT5 (Y694), 0.6 nM. Besides, the “Alternative Splicing Ratio BCLAF1 Ex. 10-12/Ex. 10-11” value in test [3] (MOLM-13, 30 nM) is reported as 1.80; in [3] (MOLM-13, 100 nM), 5.76; in test [3] (MOLM-13, 300 nM), 6.89. Moreover, the “Alternative Splicing Ratio BCL-xS/xL” value stood at 1.51 with BCLxS/xL (MOLM-13, 30 nM); 3.54 with BCLxS/xL (MOLM-13, 100 nM); 4.20 in the test with BCLxS/xL (MOLM-13, 300 nM).
